Source: PubChem BioAssay AID1963432 (Molecular Pharmacology Branch, DTP, NCI, 2024)

System: SYO-1 complex spheroid growth, percent test/control
Assay: Anticancer human tumor SYO-1 cell line growth inhibition [Asc];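 further: compound exposure lasted 7 days after spheroids grew 3 days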;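 on viability, T/C: 100% = DMSO vehicle control viability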
Settings: for IC50: curve of first compound; for viability, T/C: stronger effect = lower value
Protocol: Multicellular complex tumor spheroid response to apoptosis pathway targeting inhibitors Alrizomadlin, Pelcitoclax, and Dasminapant in combination with a variety of drugs and investigational agents in selected tumor cell lines
The MDM2 inhibitor alrizomadlin, the Bcl-2/Bcl-xL inhibitor pelcitoclax, and the IAPs inhibitor dasminapant were evaluated both individually and in combination with standard of care and investigational anticancer small molecules within a complex spheroid model of solid tumors. . Complex spheroids include a stromal component modeled by human endothelial cells (HUVEC) and fibroblasts modeled by human mesenchymal stem cells (MSCs). The concentration ranges selected for each drug and investigational agent were based upon clinically achievable concentrations if the clinical Cmax of the agent was known.
Compounds. The drugs and investigational agents: alrizomadlin (APG-115; NSC831270), pelcitoclax (APG-1252; NSC835773), dasminapant (APG-1387;NSC834197), TAK-243 (NSC785004), copanlisib (NSC809693), olaparib (NSC753686), talazoparib (NSC767125), cobimetinib (NSC 768068), eltanexor (KPT-8602, NSC 794443), abemaciclib (NSC 768073), sotorasib (NSC818433), adagrasib (NSC 831453), MRTX-1133 (NSC 836407), Iadademestat (ORY1001, NSC 806812), and RMC-4630 (NSC839698), were obtained from the NCI Developmental Therapeutics Program Chemical Repository. The FDA-approved anticancer drug set is available from the Developmental Therapeutics Program at https://dtp.cancer.gov/organization/dscb/obtaining/available plates.htm. […] The stock solutions were prepared in dimethyl sulfoxide (DMSO, Sigma-Aldrich, St. Louis, MO, cat. D2650) at 800-fold the tested concentration and stored at -70 degrees C prior to their use. All drugs and investigational agents were tested over a range starting from a high concentration at or near the clinical Cmax and decreasing in half-log increments. If the clinical Cmax for an agent had not been determined, the highest concentration tested was 10 microM.
The patient-derived cancer (PDC) cell lines include five colon adenocarcinomas: 186277-243-T-J2-PDC, 616215-338-R-J1-PDC, 439559-082-T-J2-PDC, 463943-066-T-J2-PDC, and 519858-162-T-J1-PDC; three pancreatic carcinomas: 323965-272-R-J2-PDC, 521955-158-R6-J3-PDC, and 521955-158-R2-J5-PDC; two uterine sarcomas: 327498-152-R-J2-PDC and 993429-296-R-J1-PDC; two rhabdomyosarcomas: 755483-174-R-J1-PDC and 772245-204-R-J1-PDC; two soft tissue sarcomas: 126254-015-R-J1-PDC and 494315-158-R-J1-PDC; two malignant fibrous histiocytomas: 317291-083-R-J1-PDC and 596521-263-R-J1-PDC; two breast carcinomas: 171881-019-R-J1-PDC and 885512-296-R-J2-PDC; and one ovarian carcinoma: 6556581-035-R-J-PDC were obtained from the NCI PDMR, (https://pdmr.cancer.gov). The established cell lines HSSY-2 synovial sarcoma (RRID:CVCL 8719), SYO-1 synovial sarcoma (RRID:CVCL_7146), MPNST malignant peripheral neural sheath tumor were obtained from the Sloan Kettering Institute. The following established cell lines were purchased from the American Type Culture Collection (ATCC, Manassas, VA), Sor the received from the NCI repository:, PANC-1 pancreatic carcinoma (CRL-1469, RRID:CVCL_0480), OVCAR-5 ovarian carcinoma (RRID:CVCL_1628), OVCAR-8 ovarian carcinoma (RRID:CVCL_1629), , MCF-7 breast carcinoma (CRL-12584, RRID:CVCL_0031), MDA-MB-231 breast carcinoma (CRL-12532, RRID:CVCL_0062), NCI-H1876 small cell lung carcinoma (CRL-5902, RRID:CVCL_1503), NCI-H510A small cell lung carcinoma (HTB-184, RRID:CVCL_1565), NCI-H1417 (CRL-5869, RRID:CVCL_1469), and NCI-H196 small cell lung carcinoma (CRL-5823, RRID:CVCL_1509). Dr. Peter Houghton (Greehey Children's Cancer Research Institute, University of Texas Health Science Center, San Antonio, TX) provided Rh-18 rhabdomyosarcoma (RRID:CVCL_1659). Pooled donor human umbilical vein endothelial cells (HUVEC, Lonza, cat. CC-2519) and human mesenchymal stem cells (hMSC, Lonza, cat. PT-2501) were purchased from Lonza (Walkersville, MD).
Cell Culture. […]

[1] = second compound 0.00949 µM, first compound 0.00316 µM
[2] = second compound 0.00949 µM, first compound 0.01 µM
[3] = second compound 0.00949 µM, first compound 0.0316 µM
[4] = second compound 0.00949 µM, first compound 0.1 µM
[5] = second compound 0.00949 µM, first compound 0.316 µM
[6] = second compound 0.00949 µM, first compound 1 µM
[7] = second compound 0.03 µM, first compound 0.00316 µM
[8] = second compound 0.03 µM, first compound 0.01 µM
[9] = second compound 0.03 µM, first compound 0.0316 µM
[10] = second compound 0.03 µM, first compound 0.1 µM
[11] = second compound 0.03 µM, first compound 0.316 µM
[12] = second compound 0.03 µM, first compound 1 µM
[13] = second compound 0.0949 µM, first compound 0.00316 µM
[14] = second compound 0.0949 µM, first compound 0.01 µM
[15] = second compound 0.0949 µM, first compound 0.0316 µM
[16] = second compound 0.0949 µM, first compound 0.1 µM
[17] = second compound 0.0949 µM, first compound 0.316 µM
[18] = second compound 0.0949 µM, first compound 1 µM
[19] = second compound 0.3 µM, first compound 0.00316 µM
[20] = second compound 0.3 µM, first compound 0.01 µM
[21] = second compound 0.3 µM, first compound 0.0316 µM
[22] = second compound 0.3 µM, first compound 0.1 µM
[23] = second compound 0.3 µM, first compound 0.316 µM
[24] = second compound 0.3 µM, first compound 1 µM
[25] = second compound 0.949 µM, first compound 0.00316 µM
[26] = second compound 0.949 µM, first compound 0.01 µM
[27] = second compound 0.949 µM, first compound 0.0316 µM
[28] = second compound 0.949 µM, first compound 0.1 µM
[29] = second compound 0.949 µM, first compound 0.316 µM
[30] = second compound 0.949 µM, first compound 1 µM
[31] = second compound 3 µM, first compound 0.00316 µM
[32] = second compound 3 µM, first compound 0.01 µM
[33] = second compound 3 µM, first compound 0.0316 µM
[34] = second compound 3 µM, first compound 0.1 µM
[35] = second compound 3 µM, first compound 0.316 µM
[36] = second compound 3 µM, first compound 1 µM

CCN1CCN(Cc2ccc(Nc3ncc(F)c(-c4cc(F)c5nc(C)n(C(C)C)c5c4)n3)nc2)CC1 + CCN1C(C(=O)NC23CCC(C(=O)O)(CC2)CC3)C(c2cccc(Cl)c2F)C2(C(=O)Nc3cc(Cl)ccc32)C12CCCCC2
IC50 (second compound 0.00949 µM): > 1000 nM | IC50 (second compound 0.03 µM): > 1000 nM | IC50 (second compound 0.0949 µM): 446 nM | IC50 (second compound 0.3 µM): < 3.16 nM | IC50 (second compound 0.949 µM): < 3.16 nM | IC50 (second compound 3 µM): < 3.16 nM | viability, T/C [1]: 105% | viability, T/C [2]: 105% | viability, T/C [3]: 116% | viability, T/C [4]: 119% | viability, T/C [5]: 121% | viability, T/C [6]: 102% | viability, T/C [7]: 98.8% | viability, T/C [8]: 101% | viability, T/C [9]: 98.9% | viability, T/C [10]: 117% | viability, T/C [11]: 106% | viability, T/C [12]: 73.1% | viability, T/C [13]: 87% | viability, T/C [14]: 85% | viability, T/C [15]: 87.5% | viability, T/C [16]: 88.6% | viability, T/C [17]: 63% | viability, T/C [18]: 19.5% | viability, T/C [19]: 25.1% | viability, T/C [20]: 20.8% | viability, T/C [21]: 20.6% | viability, T/C [22]: 16.5% | viability, T/C [23]: 9.85% | viability, T/C [24]: 2.81% | viability, T/C [25]: 2.61% | viability, T/C [26]: 2.87% | viability, T/C [27]: 2.98% | viability, T/C [28]: 4.27% | viability, T/C [29]: 2.21% | viability, T/C [30]: 1.42% | viability, T/C [31]: 2.07% | viability, T/C [32]: 1.29% | viability, T/C [33]: 2.77% | viability, T/C [34]: 1.88% | viability, T/C [35]: 3.26% | viability, T/C [36]: 2.37%

O=C(c1ccc(F)c(F)c1Nc1ccc(I)cc1F)N1CC(O)([C@@H]2CCCCN2)C1 + CCN1C(C(=O)NC23CCC(C(=O)O)(CC2)CC3)C(c2cccc(Cl)c2F)C2(C(=O)Nc3cc(Cl)ccc32)C12CCCCC2
IC50 (second compound 0.00949 µM): > 1000 nM | IC50 (second compound 0.03 µM): > 1000 nM | IC50 (second compound 0.0949 µM): 823 nM | IC50 (second compound 0.3 µM): < 3.16 nM | IC50 (second compound 0.949 µM): < 3.16 nM | IC50 (second compound 3 µM): < 3.16 nM | viability, T/C [1]: 115% | viability, T/C [2]: 103% | viability, T/C [3]: 99.9% | viability, T/C [4]: 111% | viability, T/C [5]: 107% | viability, T/C [6]: 119% | viability, T/C [7]: 96.5% | viability, T/C [8]: 99.5% | viability, T/C [9]: 102% | viability, T/C [10]: 116% | viability, T/C [11]: 116% | viability, T/C [12]: 103% | viability, T/C [13]: 83.5% | viability, T/C [14]: 93.1% | viability, T/C [15]: 94.5% | viability, T/C [16]: 95% | viability, T/C [17]: 93.5% | viability, T/C [18]: 41.4% | viability, T/C [19]: 30.4% | viability, T/C [20]: 23.9% | viability, T/C [21]: 24.8% | viability, T/C [22]: 21.6% | viability, T/C [23]: 10.2% | viability, T/C [24]: 0.94% | viability, T/C [25]: 5.46% | viability, T/C [26]: 5.3% | viability, T/C [27]: 3.35% | viability, T/C [28]: 1.43% | viability, T/C [29]: 0.7% | viability, T/C [30]: 0.15% | viability, T/C [31]: 1.44% | viability, T/C [32]: 2.44% | viability, T/C [33]: 1.3% | viability, T/C [34]: 0.81% | viability, T/C [35]: 0.22% | viability, T/C [36]: 0.42%
